Assay results reported in publication PMC4624854 (Frontiers in Molecular Neuroscience, 2015).

Experiments:
[1] = tested on: α1 GlyR; set-up: method as in Raafat et al., 2010; details: non-competitive inhibition; ref Raafat et al., 2010; cited from earlier work
[2] = tested on: α3 GlyR subunits; set-up: method as in Xiong et al., 2011; details: ref Xiong et al., 2011; cited from earlier work
[3] = tested on: α1 GlyR subunits; set-up: method as in Xiong et al., 2011; details: ref Xiong et al., 2011; cited from earlier work
[4] = biological target: T1, α3 GlyR (α3L splice variant) (Homo sapiens, UniProt O75311); assay: whole-cell patch-clamp of Igly, α3-long (α3L) GlyRs in CHO cells; type: cell-based
T1 construct: expressed in transfected cells; host or cells: CHO-K1
T1 sequence (O75311 34-464): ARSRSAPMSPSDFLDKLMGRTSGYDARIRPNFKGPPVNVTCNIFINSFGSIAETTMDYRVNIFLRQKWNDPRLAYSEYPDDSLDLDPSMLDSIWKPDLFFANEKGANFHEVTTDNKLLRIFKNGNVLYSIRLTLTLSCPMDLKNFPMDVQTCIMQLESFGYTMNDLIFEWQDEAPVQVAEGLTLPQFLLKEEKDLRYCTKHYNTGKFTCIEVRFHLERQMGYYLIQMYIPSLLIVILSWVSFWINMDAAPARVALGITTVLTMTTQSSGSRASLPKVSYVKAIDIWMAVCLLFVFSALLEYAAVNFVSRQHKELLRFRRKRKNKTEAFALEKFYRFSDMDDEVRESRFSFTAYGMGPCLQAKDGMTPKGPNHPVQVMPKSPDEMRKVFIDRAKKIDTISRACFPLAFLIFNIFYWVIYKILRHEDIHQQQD
Method: (§1) For electrophysiological analysis cells were transfected with cDNAs of different receptor-operated channels. One day before the transfection, cells were plated on the coverslips (12–14 mm in diameter), which were placed inside 35-mm cell culture dishes with 2 ml of medium. CHO-K1 cells were transfected with the following cDNAs encoding GlyR subunits: human α1 (1 μg/1 μl), α2 (2 μg/1 μl), α3-long (2 μg/1 μl), and β (in combination with α1 or α2 subunits with the ratio of cDNAs concentrations 1α:5β); or with a mixture of cDNAs encoding GABAA receptors: α1-GFP (1 μg/μl), β2 (1 μg/μl), γ2 (1 μg/μl) using the Lipofectamine 2000 transfection protocol (Life Technology, USA). To facilitate identification of expressing cells, in the case of GlyR, green fluorescent protein (GFP, 0.5 μg/μl) was added to the transfection medium. Visualization of GABAAR expression was achieved by using the α1-GFP construct ([Bueno et al., 1998]). Three hours after the initial exposure of the cells to the cDNAs, a fresh solution replaced the old one. […] Electrophysiological recordings were performed on fluorescent cells 24–72 h after transfection.
(§2) Whole-cell recordings were performed at room temperature (20–25 °C) using an EPC-9 amplifier (HEKA Elektronik, Germany). Cells were continuously superfused with external solution containing (mM): NaCl 140, CaCl2 2, KCl 2.8, MgCl2 4, HEPES 20, glucose 10; pH 7.4; 320–330 mOsm. Two intracellular solutions were used for filling recording patch pipettes. First, mainly used, ‘CsCl solution’ contained (mM): CsCl 140, CaCl2 6, MgCl2 2, MgATP 2, NaGTP 0.4, HEPES/CsOH 10, BAPTA/KOH 20; pH 7.3; 290 mOsm. In the experiments performed with CsCl intracellular solution, ionic currents were recorded at holding potential (Vh) –30 mV. In some experiments, ‘Kgluconate solution’ was used, in which CsCl 140 mM was replaced by KCl 20 mM + Kgluconate 120 mM. Recordings with this solutions were performed at Vh = 0 mV. Pipettes were pulled from borosilicate glass capillaries (Harvard Apparatus Ltd, USA) and had resistances of 5–10 MOhms. For rapid replacement of solutions, the fast application system was used in this study. Two parallel rectangular tubes (100 μm × 100 μm) were positioned 40–50 μm above the recorded cell. The movement of the tubes was controlled by a computer-driven fast exchange system (SF 77A Perfusion Fast-Step, Warner, USA) allowing a 10–90% solution exchange in 3–5 ms, as measured by open electrode controls (1/10 external solution/water).
In all experiments, the duration of the pulses of agonist was 2 s. The duration of ginkgolic acid application varied from 20 s to 6 min. Cells with low input resistance (<150 MOhms) and a rapid run-down (>30% with repetitive application) were excluded from analysis.
(§3) All electrophysiological results were analyzed using PatchMaster (HEKA Electronik, Germany) software. Dose–response curves were constructed by fitting values obtained at different concentrations, after normalization.

[5] = biological target: GABAAR α1/β2/γ2 (Homo sapiens, UniProt P14867+P47870); assay: whole-cell patch-clamp of GABA-evoked currents, α1/β2/γ2 GABAARs in CHO cells; type: cell-based
Sequence of GABAAR α1/β2/γ2 (P14867 28-456): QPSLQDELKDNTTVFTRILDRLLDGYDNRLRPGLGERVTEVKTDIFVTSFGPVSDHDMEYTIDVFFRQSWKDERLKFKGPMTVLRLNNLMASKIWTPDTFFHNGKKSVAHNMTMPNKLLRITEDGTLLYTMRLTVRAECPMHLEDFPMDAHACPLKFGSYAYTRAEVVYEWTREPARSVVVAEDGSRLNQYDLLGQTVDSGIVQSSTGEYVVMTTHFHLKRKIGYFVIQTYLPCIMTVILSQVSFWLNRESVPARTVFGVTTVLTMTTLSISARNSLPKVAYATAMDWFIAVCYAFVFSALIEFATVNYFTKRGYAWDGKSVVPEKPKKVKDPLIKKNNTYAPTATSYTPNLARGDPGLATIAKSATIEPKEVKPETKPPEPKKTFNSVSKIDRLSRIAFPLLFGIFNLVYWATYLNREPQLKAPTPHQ
Sequence of GABAAR α1/β2/γ2 (P47870 26-512): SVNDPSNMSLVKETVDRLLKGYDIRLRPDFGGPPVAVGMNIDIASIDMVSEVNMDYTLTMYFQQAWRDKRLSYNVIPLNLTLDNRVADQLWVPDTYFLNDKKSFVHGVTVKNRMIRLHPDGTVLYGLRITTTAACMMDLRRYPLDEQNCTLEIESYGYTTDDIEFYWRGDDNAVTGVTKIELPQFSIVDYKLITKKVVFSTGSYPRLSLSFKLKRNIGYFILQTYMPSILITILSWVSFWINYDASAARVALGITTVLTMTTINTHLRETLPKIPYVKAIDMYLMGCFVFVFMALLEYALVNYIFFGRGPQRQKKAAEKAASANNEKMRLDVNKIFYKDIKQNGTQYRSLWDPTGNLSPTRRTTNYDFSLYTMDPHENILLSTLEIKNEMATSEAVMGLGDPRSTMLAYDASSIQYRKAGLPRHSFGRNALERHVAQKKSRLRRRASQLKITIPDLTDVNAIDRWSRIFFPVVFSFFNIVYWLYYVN
Sequence of GABAAR α1/β2/γ2 (P18507 40-475 partner): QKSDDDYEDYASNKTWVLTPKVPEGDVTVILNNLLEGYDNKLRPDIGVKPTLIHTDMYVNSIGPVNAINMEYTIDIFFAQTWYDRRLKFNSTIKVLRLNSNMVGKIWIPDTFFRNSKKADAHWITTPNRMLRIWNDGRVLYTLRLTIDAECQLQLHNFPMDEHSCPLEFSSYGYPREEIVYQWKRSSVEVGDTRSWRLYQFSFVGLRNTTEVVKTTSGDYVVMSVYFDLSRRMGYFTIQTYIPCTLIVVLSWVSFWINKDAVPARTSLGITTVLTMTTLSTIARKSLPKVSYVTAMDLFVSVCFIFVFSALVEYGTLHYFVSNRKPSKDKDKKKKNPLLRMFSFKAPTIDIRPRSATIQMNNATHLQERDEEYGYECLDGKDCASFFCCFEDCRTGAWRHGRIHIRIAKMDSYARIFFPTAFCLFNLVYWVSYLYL
Method: as §1
Whole-cell recordings were performed at room temperature (20–25 °C) using an EPC-9 amplifier (HEKA Elektronik, Germany). Cells were continuously superfused with external solution containing (mM): NaCl 140, CaCl2 2, KCl 2.8, MgCl2 4, HEPES 20, glucose 10; pH 7.4; 320–330 mOsm. Two intracellular solutions were used for filling recording patch pipettes. […] In the experiments performed with CsCl intracellular solution, ionic currents were recorded at holding potential (Vh) –30 mV. […] Two parallel rectangular tubes (100 μm × 100 μm) were positioned 40–50 μm above the recorded cell. The movement of the tubes was controlled by a computer-driven fast exchange system (SF 77A Perfusion Fast-Step, Warner, USA) allowing a 10–90% solution exchange in 3–5 ms, as measured by open electrode controls (1/10 external solution/water). […]
(§4) All electrophysiological results were analyzed using PatchMaster (HEKA Electronik, Germany) software. […]

[6] = biological target: T2, α1 GlyR (Homo sapiens, UniProt P23415); assay: whole-cell patch-clamp of glycine-induced currents (Igly), homomeric α1 GlyRs expressed in CHO cells; details: for average Igly (mean current amplitude) after ginkgolic acid: 2 min, control 291 ± 65
T2 sequence (P23415 29-457): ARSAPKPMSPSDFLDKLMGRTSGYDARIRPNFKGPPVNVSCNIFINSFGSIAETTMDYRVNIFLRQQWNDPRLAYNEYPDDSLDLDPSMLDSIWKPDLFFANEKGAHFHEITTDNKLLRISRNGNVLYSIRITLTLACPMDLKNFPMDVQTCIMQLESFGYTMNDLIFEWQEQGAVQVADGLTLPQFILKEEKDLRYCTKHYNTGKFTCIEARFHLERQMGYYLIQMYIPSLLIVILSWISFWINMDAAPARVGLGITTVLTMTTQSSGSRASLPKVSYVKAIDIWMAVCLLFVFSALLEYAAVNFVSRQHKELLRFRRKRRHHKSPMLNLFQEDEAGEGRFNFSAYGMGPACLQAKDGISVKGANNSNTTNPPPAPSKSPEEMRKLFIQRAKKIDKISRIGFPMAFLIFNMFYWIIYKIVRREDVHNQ
Method: The experiments were carried out on cultured Chinese hamster ovary (CHO-K1) cells obtained from the American Type Tissue Culture Collection (ATCC, Molsheim, France) and on mouse neuroblastoma cells (N2a) cells that were maintained in culture conditions as previously described ([Waseem et al., 2010]; [Mukhtarov et al., 2013]).
as §1, §2
In all experiments, the duration of the pulses of agonist was 2 s. […] Cells with low input resistance (<150 MOhms) and a rapid run-down (>30% with repetitive application) were excluded from analysis.
as §3
where I is the normalized current amplitude induced by the agonist at concentration [A], nH is the Hill coefficient and EC50 is the concentration at which a half-maximum response was induced.
Paired and unpaired Student’s t-tests were used for statistical analysis. The data are expressed as the means ± SEM.

[7] = tested on: protein phosphatase 2C (PP2C); set-up: method as in Ahlemeyer et al., 2001; details: ref Ahlemeyer et al., 2001; cited from earlier work
[8] = biological target: T2, α1 GlyR; assay: whole-cell patch-clamp of Igly, α1 GlyR expressed in mouse neuroblastoma (N2a) cells; type: cell-based; set-up: expressed in transfected cells; host or cells: mouse neuroblastoma N2a; details: 3 μM ginkgolic acid, first two applications (Figure 2B)
Method: (§5) For electrophysiological analysis cells were transfected with cDNAs of different receptor-operated channels. One day before the transfection, cells were plated on the coverslips (12–14 mm in diameter), which were placed inside 35-mm cell culture dishes with 2 ml of medium. CHO-K1 cells were transfected with the following cDNAs encoding GlyR subunits: human α1 (1 μg/1 μl), α2 (2 μg/1 μl), α3-long (2 μg/1 μl), and β (in combination with α1 or α2 subunits with the ratio of cDNAs concentrations 1α:5β); or with a mixture of cDNAs encoding GABAA receptors: α1-GFP (1 μg/μl), β2 (1 μg/μl), γ2 (1 μg/μl) using the Lipofectamine 2000 transfection protocol (Life Technology, USA). […]
(§6) Whole-cell recordings were performed at room temperature (20–25 °C) using an EPC-9 amplifier (HEKA Elektronik, Germany). […] In the experiments performed with CsCl intracellular solution, ionic currents were recorded at holding potential (Vh) –30 mV. […] Two parallel rectangular tubes (100 μm × 100 μm) were positioned 40–50 μm above the recorded cell. The movement of the tubes was controlled by a computer-driven fast exchange system (SF 77A Perfusion Fast-Step, Warner, USA) allowing a 10–90% solution exchange in 3–5 ms, as measured by open electrode controls (1/10 external solution/water). […]

[9] = biological target: T3, α2 GlyRs (Homo sapiens, UniProt P23416); assay: whole-cell patch-clamp of Igly, homomeric α2 GlyRs in CHO cells; type: cell-based
T3 construct: expressed in transfected cells; host or cells: CHO-K1
T3 sequence (P23416 28-452): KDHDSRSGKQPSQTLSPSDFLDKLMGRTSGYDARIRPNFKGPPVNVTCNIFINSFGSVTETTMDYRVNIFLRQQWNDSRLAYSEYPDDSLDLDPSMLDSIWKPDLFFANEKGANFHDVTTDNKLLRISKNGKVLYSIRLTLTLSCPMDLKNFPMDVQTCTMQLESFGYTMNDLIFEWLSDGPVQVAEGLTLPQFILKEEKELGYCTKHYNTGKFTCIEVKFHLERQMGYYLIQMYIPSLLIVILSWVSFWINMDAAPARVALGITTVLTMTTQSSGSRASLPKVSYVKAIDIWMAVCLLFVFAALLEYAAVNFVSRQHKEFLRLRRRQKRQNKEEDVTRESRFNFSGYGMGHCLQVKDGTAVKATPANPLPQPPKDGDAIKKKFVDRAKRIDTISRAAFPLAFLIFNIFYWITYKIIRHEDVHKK
Method: as §5, §6, §4

[10] = biological target: T4, heteromeric α1/β GlyRs (Homo sapiens, UniProt P23415); assay: whole-cell patch-clamp of Igly, heteromeric α1/β GlyRs in CHO cells; type: cell-based; details: for increase of currents induced by subsaturating glycine: 25 μM ginkgolic acid, n = 5
T4 construct: expressed in transfected cells; host or cells: CHO-K1
T4 sequence (P48167 23-497 partner, one chain of several): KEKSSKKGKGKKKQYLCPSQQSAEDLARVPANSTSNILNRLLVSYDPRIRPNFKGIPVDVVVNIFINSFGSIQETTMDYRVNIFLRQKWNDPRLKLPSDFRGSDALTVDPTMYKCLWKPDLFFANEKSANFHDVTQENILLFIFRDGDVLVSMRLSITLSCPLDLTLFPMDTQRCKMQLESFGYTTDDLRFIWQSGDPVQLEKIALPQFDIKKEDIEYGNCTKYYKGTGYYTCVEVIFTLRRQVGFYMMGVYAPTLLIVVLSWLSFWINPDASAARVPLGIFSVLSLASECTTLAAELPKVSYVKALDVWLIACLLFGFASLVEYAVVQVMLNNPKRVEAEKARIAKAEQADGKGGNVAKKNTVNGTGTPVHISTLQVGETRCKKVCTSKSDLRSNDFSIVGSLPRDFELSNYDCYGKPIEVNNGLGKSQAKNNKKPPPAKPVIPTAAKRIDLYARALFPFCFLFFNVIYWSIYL
Method: as §1
Whole-cell recordings were performed at room temperature (20–25 °C) using an EPC-9 amplifier (HEKA Elektronik, Germany). Cells were continuously superfused with external solution containing (mM): NaCl 140, CaCl2 2, KCl 2.8, MgCl2 4, HEPES 20, glucose 10; pH 7.4; 320–330 mOsm. Two intracellular solutions were used for filling recording patch pipettes. First, mainly used, ‘CsCl solution’ contained (mM): CsCl 140, CaCl2 6, MgCl2 2, MgATP 2, NaGTP 0.4, HEPES/CsOH 10, BAPTA/KOH 20; pH 7.3; 290 mOsm. In the experiments performed with CsCl intracellular solution, ionic currents were recorded at holding potential (Vh) –30 mV. […] Two parallel rectangular tubes (100 μm × 100 μm) were positioned 40–50 μm above the recorded cell. The movement of the tubes was controlled by a computer-driven fast exchange system (SF 77A Perfusion Fast-Step, Warner, USA) allowing a 10–90% solution exchange in 3–5 ms, as measured by open electrode controls (1/10 external solution/water). […]

[11] = tested on: GlyR subunits α1, α2, α3; heteromeric vs homomeric GlyRs; set-up: method as in Kondratskaya et al., 2005; details: ref Kondratskaya et al., 2005; cited from earlier work

O=c1c(O)c(-c2ccc(O)c(O)c2)oc2cc(O)cc(O)c12 [Quercetin]
IC50 [1]: ~45 µM

CCCCCc1cc(O)c2c(c1)OC(C)(C)C1CCC(C)=CC21 (centres unmarked) [THC, Δ^9-tetrahydrocannabiol]
concentration from which potentiation begins [2]: ≥ 30 nM | concentration from which potentiation begins [3]: ≥ 30 nM

CCCCCC/C=C\CCCCCCCc1cccc(O)c1C(=O)O [ginkgolic acid]
overall effect on the amplitude of whole-cell currents ([4]; 25 μM ginkgolic acid): negligible | change of current induced by 100 μM glycine, one cell with weak potentiation ([4]; 25 μM ginkgolic acid, 20–40 sec pre-treatment, one cell): +4% | mean current in the presence of ginkgolic acid ([4]; 25 μM ginkgolic acid, glycine 100 μM, n = 6, control 338 ± 101): 318 ± 96 pA | mean current after washout of ginkgolic acid ([4]; glycine 100 μM, n = 6, control 338 ± 101): 326 ± 113 pA | changes in GABA-evoked currents ([5]; 25 μM ginkgolic acid, 20–40 s, GABA 1 μM (EC10) or 10 μM (EC50)): did not observe any changes | mean current after ginkgolic acid application ([5]; 25 μM ginkgolic acid, GABA 10 μM, n = 16, control 235 ± 65): 228 ± 63 pA | mean current after washout of ginkgolic acid ([5]; GABA 10 μM, n = 16, control 235 ± 65): 232 ± 65 pA | threshold of potentiation of α1 GlyR [6]: ~30 nM | time of treatment after which potentiation was observed (onset) ([6]; 30 nM ginkgolic acid, glycine 30 μM): 2 to 3 min | augmentation of Igly after 20–30 s of pre-treatment ([6]; 100 nM ginkgolic acid, 20–30 s, n = 8): 26 ± 8% | potentiation of Igly following the first 40 s ([6]; 100 nM ginkgolic acid, 40 s, glycine 30 μM, one cell (Figure 2A)): 54% | average Igly (mean current amplitude) after ginkgolic acid ([6]; 100 nM ginkgolic acid, glycine 30 μM, n = 8): 467 ± 124 pA | average Igly (mean current amplitude) after ginkgolic acid ([6]; 100 nM ginkgolic acid, glycine 30 μM, n = 8, listed as GA): 467±124 pA | degree of potentiation of Igly ([6]; 100 nM ginkgolic acid, 2 min pre-application, glycine 30 μM, n = 8 cells (range in different cells and mean ± SEM)): 51 ± 10% | enhancement of Igly after 30 s ([6]; 3 μM ginkgolic acid, 30 s, glycine 30 μM): > 30% | effect on amplitudes of currents induced by saturating glycine ([6]; glycine 0.3–1 mM): not affected | concentrations at which effects on PP2C were caused [7]: > 100 µM | increase in Igly in N2a cells [8]: more than twofold increase | effect on Igly at 1 μM ([9]; 1 μM ginkgolic acid): not detectable | effect on the amplitude of Igly at low concentrations ([9]; ginkgolic acid <10 μM): no effect | increase of currents induced by subsaturating glycine [10]: 82 ± 39% | increase of currents induced by subsaturating glycine ([10]; listed as GA): 82%±39 | effect on currents induced by saturated glycine ([10]; glycine 0.3–1 mM): did not increase

NCC(=O)O [glycine, reference compound]
EC50 ([4]; read-out: EC50 to glycine in control, n = 11): 142 ± 9.8 µM

ginkgolide B
preference for α1 vs. α2 GlyR subunits [11]: about 5 fold | preference for α1 vs. α3 GlyR subunits [11]: ~3 fold
